We go through 21 compounds from patent US12358907B2, “Substituted pyrrolidine amides III” (GRÜNENTHAL GMBH, priority 2019, dated 2025).

Structures are written as SMILES. Where two headings read alike, the source gives them in different places.

In experiment [1] the target is human glucocorticoid receptor (Homo sapiens (Human), UniProt P04150). The experiment in a line: Human glucocorticoid receptor (hGR) ligand-binding assay (3H-dexamethasone competition, IM9 cytosol). To be noted: read-out: % inhibition hGR at 1 μM. As for the experimental part:
Preferably, the glucocortitcoid receptor extracted from cytosol of IM9 cells is used for competitive radioligand binding assays to calculate percentage inhibition of the binding of radiolabeled ligand 3H-dexamethasone at the human glucocorticoid receptor.
The human lymphoblast cell line IM9 (ATCC, Bethesda, MD) was cultivated in RPMI 1640 media containing 10% fetal bovine serum, penicillin (100 U/ml), streptomycin (100 μg/ml), and 2 mM L-glutamine at 37° and 7% CO2 in a humidified incubator. Cells were centrifuged for 10 minutes at 1500 g and were washed in PBS and repelleted. Cell were then resuspended in homogenization buffer consisting of: 10 mM TES, 10 mM sodium molybdate, 1 mM EDTA, pH 7.4, 20 mM 2-mercaptoethanol, and 10% glycerol. Disruption of the cells was performed by nitrogen cavitation using 2×15 minutes at 600 to 750 psi nitrogen in a N2 cavitator at 0° C. The cell preparation was then centrifuged at 27,000 g for 15 minutes, and the resultant supernatant (=cytosol of IM9 cells) was centrifuged at 103,000 g for 60 minutes at 4° C. The amount of protein in the supernatant fraction was determined using a BCA assay kit and aliquots were snap frozen in a dry ice-acetone bath and stored at −70° C. Competitive binding assays were done in duplicate in homogenization buffer with a total volume of 200 μl. To this end, 1 mg of IM9 cytosol, 0.05 μCi (1.5 nM) of 3H-dexamethasone and unlabeled Example compounds as competitor compounds at 1 μM were mixed. The reaction was stopped after incubation at 0° C. for 16 to 18 hours by the addition of 100 μl of a charcoal-dextran mixture (2% activated charcoal, 0.5% dextran in 10 mM Tris, 1 mM EDTA, pH 7.4). Another incubation step at 0° C. for 10 minutes followed before the samples were centrifuged for 5 minutes at 8200 g. 100 μl of the supernatant) was finally assayed for radioactivity by liquid scintillationspectrometry, and percentage inhibition of 3H-dexamethasone binding was calculated.

For experiment [2], the target named is glucocorticoid receptor (GAL4 DBD-GR) (Homo sapiens (Human), UniProt P04150). The experiment in a line: GR cell-based assays (GRE agonist / GRE antagonist), CHO-Gal4/GR luciferase reporter. In short, it runs like this: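 CHO cells stably carrying GAL4 DBD-GR ligand-binding-domain fusion and a GAL4-UAS firefly luciferase reporter were treated in Opti-MEM with 8 half-log concentrations from 10 μM to 0.003 μM (0.5% DMSO, quadruplicates). Antagonist mode measured repression of beclomethasone-induced signal. Luminescence after lysis gave EC50 or IC50.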
Chain of glucocorticoid receptor (GAL4 DBD-GR) (P04150 524-758): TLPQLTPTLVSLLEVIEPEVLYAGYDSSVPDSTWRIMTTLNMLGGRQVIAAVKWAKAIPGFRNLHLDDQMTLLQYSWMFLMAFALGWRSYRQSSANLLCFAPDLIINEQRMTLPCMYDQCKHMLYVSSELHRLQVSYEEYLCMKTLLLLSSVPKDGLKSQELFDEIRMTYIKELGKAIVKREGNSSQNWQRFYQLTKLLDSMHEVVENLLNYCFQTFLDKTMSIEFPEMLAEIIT

Where [3] appears, read: CHO-Gal4/GR reporter cells, agonist mode (EC50) or antagonist mode against beclometasone (IC50), 6 hour incubation.

Chain of human glucocorticoid receptor (P04150 whole entry): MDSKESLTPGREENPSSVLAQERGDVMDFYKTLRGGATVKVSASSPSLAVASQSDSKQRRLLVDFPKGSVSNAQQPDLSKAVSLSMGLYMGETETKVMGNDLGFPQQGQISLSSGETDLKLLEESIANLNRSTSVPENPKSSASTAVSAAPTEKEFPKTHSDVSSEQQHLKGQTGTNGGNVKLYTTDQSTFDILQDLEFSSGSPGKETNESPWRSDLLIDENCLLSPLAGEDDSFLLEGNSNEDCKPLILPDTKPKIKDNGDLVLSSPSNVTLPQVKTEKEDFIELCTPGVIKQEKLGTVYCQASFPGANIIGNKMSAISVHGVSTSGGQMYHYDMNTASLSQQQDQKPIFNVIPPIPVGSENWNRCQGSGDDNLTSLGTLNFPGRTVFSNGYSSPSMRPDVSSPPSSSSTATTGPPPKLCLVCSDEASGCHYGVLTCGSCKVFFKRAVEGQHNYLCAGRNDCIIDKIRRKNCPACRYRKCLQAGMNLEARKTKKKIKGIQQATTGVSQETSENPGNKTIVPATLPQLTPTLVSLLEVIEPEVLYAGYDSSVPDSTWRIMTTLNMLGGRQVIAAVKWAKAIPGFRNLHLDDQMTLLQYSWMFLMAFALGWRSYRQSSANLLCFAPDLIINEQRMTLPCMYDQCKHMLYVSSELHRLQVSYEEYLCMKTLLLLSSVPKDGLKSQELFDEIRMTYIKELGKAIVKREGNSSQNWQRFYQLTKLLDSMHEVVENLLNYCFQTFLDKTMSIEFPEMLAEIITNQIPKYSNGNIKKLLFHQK

As usually defined, the inhibition is the drop in the measured response relative to a control, in per cent. Regarding `Cn1cc(-n2ncc3cc(N4C(=O)C(C)(C)[C@@H](NC(=O)c5cncs5)[C@@H]4c4ccccc4)ccc32)ccc1=O` [Example 24, N-[(2S,3R)-4,4-Dimethyl-1-[1-(1-methyl-6-oxo-1H-pyridin-3-yl)-1H-indazol-5-yl]-5-oxo-2-phenyl-pyrrolidin-3-yl]-thiazole-5-carboxylic acid amide], the inhibition at 1 µM in experiment [1] turned out to be 12%.
For the compound `Cn1cc(-n2ncc3cc(N4C(=O)C(C)(C)[C@H](NC(=O)c5cscn5)[C@H]4c4ccccc4)ccc32)ccc1=O` [Example 17, N-[(2R,3S)-4,4-Dimethyl-1-[1-(1-methyl-6-oxo-1H-pyridin-3-yl)-1H-indazol-5-yl]-5-oxo-2-phenyl-pyrrolidin-3-yl]-thiazole-4-carboxylic acid amide], the inhibition at 1 µM in experiment [1] is 80%.
With `Cc1ncsc1C(=O)N[C@@H]1[C@@H](c2ccccc2)N(c2ccc3c(cnn3-c3ccc(=O)n(C)c3)c2)C(=O)C1(C)C` [Example 16, N-[(2R,3S)-4,4-Dimethyl-1-[1-(1-methyl-6-oxo-1H-pyridin-3-yl)-1H-indazol-5-yl]-5-oxo-2-phenyl-pyrrolidin-3-yl]-4-methyl-thiazole-5-carboxylic acid amide], in experiment [1], the inhibition at 1 µM was 30%.
For the compound `Cc1cc(C(=O)N[C@H]2[C@H](c3ccccc3)N(c3ccc4c(cnn4-c4ccc(=O)n(C)c4)c3)C(=O)C2(C)C)no1` [Example 22, N-[(2S,3R)-4,4-Dimethyl-1-[1-(1-methyl-6-oxo-1H-pyridin-3-yl)-1H-indazol-5-yl]-5-oxo-2-phenyl-pyrrolidin-3-yl]-5-methyl-isoxazole-3-carboxylic acid amide], the inhibition at 1 µM in experiment [1] worked out at 18%.
For `Cn1cc(-n2ncc3cc(N4C(=O)C(C)(C)[C@H](NC(=O)c5cnco5)[C@H]4c4ccccc4)ccc32)ccc1=O` [Example 13, N-[(2R,3S)-4,4-Dimethyl-1-[1-(1-methyl-6-oxo-1H-pyridin-3-yl)-1H-indazol-5-yl]-5-oxo-2-phenyl-pyrrolidin-3-yl]-oxazole-5-carboxylic acid amide], in experiment [1], the inhibition at 1 µM amounted to 20%.
`Cc1nc(C(=O)N[C@@H]2[C@@H](c3ccccc3)N(c3ccc4c(cnn4-c4ccc(=O)n(C)c4)c3)C(=O)C2(C)C)no1` [Example 14, N-[(2R,3S)-4,4-Dimethyl-1-[1-(1-methyl-6-oxo-1H-pyridin-3-yl)-1H-indazol-5-yl]-5-oxo-2-phenyl-pyrrolidin-3-yl]-5-methyl-[1,2,4]oxadiazole-3-carboxylic acid amide]: the inhibition at 1 µM in experiment [1] was 84%.
Turning to `Cn1cc(-n2ncc3cc(N4C(=O)C(C)(C)[C@@H](NC(=O)c5cnco5)[C@@H]4c4ccccc4)ccc32)ccc1=O` [Example 21, N-[(2S,3R)-4,4-Dimethyl-1-[1-(1-methyl-6-oxo-1H-pyridin-3-yl)-1H-indazol-5-yl]-5-oxo-2-phenyl-pyrrolidin-3-yl]-oxazole-5-carboxylic acid amide], in experiment [1], the inhibition at 1 µM amounted to 22%.
Same read-out and setting: next, `Cn1cc(-n2ncc3cc(N4C(=O)C5(CC5)[C@H](NC(=O)C5CC5)[C@H]4c4ccccc4)ccc32)ccc1=O` (racemic) [Example 30, N-[rac-(6R,7S)-5-[1-(1-Methyl-6-oxo-1H-pyridin-3-yl)-1H-indazol-5-yl]-4-oxo-6-phenyl-5-azaspiro[2.4]heptan-7-yl]-cyclopropanecarboxylic acid amide]: 27%; `Cc1scnc1C(=O)N[C@@H]1[C@@H](c2ccccc2)N(c2ccc3c(cnn3-c3ccc(=O)n(C)c3)c2)C(=O)C1(C)C` [Example 18, N-[(2R,3S)-4,4-Dimethyl-1-[1-(1-methyl-6-oxo-1H-pyridin-3-yl)-1H-indazol-5-yl]-5-oxo-2-phenyl-pyrrolidin-3-yl]-5-methyl-thiazole-4-carboxylic acid amide]: 29%.
Still for that read-out and setting: next, `CC(F)(F)C(=O)N[C@@H]1[C@@H](c2ccccc2)N(c2ccc3c(cnn3-c3ccc(F)cc3)c2)C(=O)C1(C)C` [Example 10, 2,2-Difluoro-N-[(2R,3S)-1-[1-(4-fluorophenyl)-1H-indazol-5-yl]-4,4-dimethyl-5-oxo-2-phenyl-pyrrolidin-3-yl]-propionamide]: 100%.
`Cn1cc(-n2ncc3cc(N4C(=O)C(C)(C)[C@H](NC(=O)C(C)(F)F)[C@H]4c4ccccc4)ccc32)ccc1=O` [Example 9, N-[(2R,3S)-4,4-Dimethyl-1-[1-(1-methyl-6-oxo-1H-pyridin-3-yl)-1H-indazol-5-yl]-5-oxo-2-phenyl-pyrrolidin-3-yl]-2,2-difluoro-propionamide]: the inhibition at 1 µM in experiment [1] stood at 86%.
The term IC50 denotes the concentration that gives 50% inhibition. Consider `Cc1nocc1C(=O)N[C@H]1[C@H](c2ccccc2)N(c2ccc3c(cnn3-c3ccc(F)cc3)c2)C(=O)C1(C)C` [Example 40b, N-((2S,3R)-1-(1-(4-fluorophenyl)-1H-indazol-5-yl)-4,4-dimethyl-5-oxo-2-phenylpyrrolidin-3-yl)-3-methylisoxazole-4-carboxamide], for which, in experiment [2] (read-out: IC50 or EC50), the IC50 was 100 to 1000 nM.
Turning to `C[C@@H]1C(=O)N(c2ccc3c(cnn3-c3ccc(F)cc3)c2)[C@H](c2ccccc2)[C@H]1NC(=O)c1ncccn1` (racemic) [Example 66, N-[rac-(2R,3S,4S)-1-[1-(4-Fluorophenyl)-1H-indazol-5-yl]-4-methyl-5-oxo-2-phenyl-pyrrolidin-3-yl]-pyrimidine-2-carboxylic acid amide], the 50% inhibitory concentration (IC50) in experiment [2] (read-out: IC50 or EC50) was under 100 nM.
In the case of `Cc1scnc1C(=O)N[C@@H]1[C@@H](c2ccccc2)N(c2ccc3c(cnn3-c3ccc(F)cc3)c2)C(=O)C1(C)C` [Example 39a, N-((2R,3S)-1-(1-(4-fluorophenyl)-1H-indazol-5-yl)-4,4-dimethyl-5-oxo-2-phenylpyrrolidin-3-yl)-5-methylthiazole-4-carboxamide], the IC50 in experiment [2] (setting [3]) is under 100 nM.
With `O=C(N[C@H]1[C@H](CC2CC2)C(=O)N(c2ccc3c(cnn3-c3ccc(F)cc3)c2)[C@@H]1c1ccccc1)C1CC1` (racemic) [Example 121, N-[rac-(2R,3S,4S)-4-(Cyclopropyl-methyl)-1-[1-(4-fluorophenyl)-1H-indazol-5-yl]-5-oxo-2-phenyl-pyrrolidin-3-yl]-cyclopropanecarboxylic acid amide], the IC50 in experiment [2] (read-out: IC50 or EC50) was under 100 nM.
Take `O=C(N[C@@H]1[C@@H](c2ccccc2)N(c2ccc3c(cnn3-c3ccc(F)cc3)c2)C(=O)C12CCC2)C1CC1` [Example 135, N-((7R,8S)-6-(1-(4-fluorophenyl)-1H-indazol-5-yl)-5-oxo-7-phenyl-6-azaspiro[3.4]octan-8-yl)cyclopropanecarboxamid]: the IC50 in experiment [2] (setting [3]) was under 100 nM.
On to `Cc1cccc([C@@H]2[C@@H](NS(C)(=O)=O)[C@@H](C)C(=O)N2c2ccc3c(cnn3-c3ccc(F)cc3)c2)c1` (racemic) [Example 76, N-[rac-(2R,3S,4R)-1-[1-(4-Fluorophenyl)-1H-indazol-5-yl]-4-methyl-2-m-tolyl-5-oxo-pyrrolidin-3-yl]-methanesulfonic acid amide], for which the IC50 in experiment [2] (read-out: IC50 or EC50) was under 100 nM.
`C[C@@H]1C(=O)N(c2ccc3c(cnn3-c3ccc(F)cc3)c2)[C@H](c2ccc(Cl)s2)[C@H]1NC(=O)c1cccnc1` (racemic) [Example 111, N-[rac-(2S,3S,4S)-2-(5-Chloro-thiophen-2-yl)-1-[1-(4-fluorophenyl)-1H-indazol-5-yl]-4-methyl-5-oxo-pyrrolidin-3-yl]-pyridine-3-carboxylic acid amide]: the IC50 in experiment [2] (read-out: IC50 or EC50) is under 100 nM.
On to `C[C@@H]1C(=O)N(c2ccc3c(cnn3-c3ccc(F)cc3)c2)[C@H](c2ccccc2Cl)[C@H]1NS(C)(=O)=O` (racemic) [Example 93, N-[rac-(2R,3S,4S)-2-(2-Chlorophenyl)-1-[1-(4-fluorophenyl)-1H-indazol-5-yl]-4-methyl-5-oxo-pyrrolidin-3-yl]-methanesulfonic acid amide], for which the IC50 in experiment [2] (read-out: IC50 or EC50) was under 100 nM.
On to `Cc1ncsc1C(=O)N[C@H]1[C@H](C)C(=O)N(c2ccc3c(cnn3-c3ccc(F)cc3)c2)[C@@H]1c1ccccc1` (racemic) [Example 60, N-[rac(2R,3S,4S)-1-[1-(4-Fluorophenyl)-1H-indazol-5-yl]-4-methyl-5-oxo-2-phenyl-pyrrolidin-3-yl]-4-methyl-thiazole-5-carboxylic acid amide], for which the IC50 in experiment [2] (read-out: IC50 or EC50) was in the range of 100 to 1000 nM.
With `Cc1cccc([C@@H]2[C@@H](NC(=O)c3scnc3C)[C@@H](C)C(=O)N2c2ccc3c(cnn3-c3ccc(F)cc3)c2)c1` (racemic) [Example 71, N-[rac-(2R,3S,4R)-1-[1-(4-Fluorophenyl)-1H-indazol-5-yl]-4-methyl-2-m-tolyl-5-oxo-pyrrolidin-3-yl]-4-methyl-thiazole-5-carboxylic acid amide], the IC50 in experiment [2] (read-out: IC50 or EC50) fell in the range of 100 to 1000 nM.
